Measurements reported in paper PMC7251097, “Aspartate/asparagine-β-hydroxylase: a high-throughput mass spectrometric assay for discovery of small molecule inhibitors” (Scientific Reports, 2020).
Where a name gives a salt, the structure may show the parent alone. Read-outs that look alike come from different tables or passages of the source.

Biological target: T1, His6-AspH315–758 (human aspartate/asparagine-β-hydroxylase, AspH) (Homo sapiens, UniProt Q12797)
T1 construct: N-Terminally His6-tagged human AspH315–758 (His6-AspH315–758) was produced in E. coli BL21 (DE3) cells; made in house; host or cells: E. coli BL21 (DE3), pET-28a(+) vector
T1 sequence (Q12797 315-758): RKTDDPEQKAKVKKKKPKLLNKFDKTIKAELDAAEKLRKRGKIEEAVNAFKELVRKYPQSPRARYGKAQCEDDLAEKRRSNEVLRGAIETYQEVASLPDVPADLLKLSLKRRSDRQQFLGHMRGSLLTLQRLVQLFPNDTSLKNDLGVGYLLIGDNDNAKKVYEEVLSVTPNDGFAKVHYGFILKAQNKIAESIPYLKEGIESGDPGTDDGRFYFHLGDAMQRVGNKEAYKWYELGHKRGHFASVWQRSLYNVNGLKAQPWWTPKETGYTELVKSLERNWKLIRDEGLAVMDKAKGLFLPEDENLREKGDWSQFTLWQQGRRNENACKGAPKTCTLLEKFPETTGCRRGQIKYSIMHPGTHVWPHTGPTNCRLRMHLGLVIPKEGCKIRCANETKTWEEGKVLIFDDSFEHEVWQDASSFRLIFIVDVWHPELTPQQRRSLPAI
Assay: SPE-MS AspH inhibition assay (LOPAC screen at fixed 20 μM and IC50 dose-response), hydroxylation of cyclic peptide hFX-CP101–119
Format: biochemical
Settings: for Plate 2 (% inhibition): normalised to DMSO and 2,4-PDCA controls

[1] = LOPAC Plate 4, compound at 20 uM, substrate conversion
[2] = LOPAC Plate 4, compound at 20 uM, read-out: % inhibition
[3] = AspH activity, fixed compound concentration 20 μM, initial LOPAC screen, 0.5%v/v DMSO, read-out: Inhibition at 20 µM [%]
[4] = plate 5 (Pfitzer), test compounds at fixed 20 μM
[5] = plate 5 (Pfitzer), test compounds at fixed 20 μM, mean conversion DMSO 32.88
[6] = LOPAC compound at 20uM, plate 3, conversion of substrate peptide
[7] = LOPAC Plate 4, compound at 20 uM
[8] = LOPAC compound at 20uM, conversion of substrate peptide

## CCN(CC)CCNC(=O)c1cc(S(C)(=O)=O)ccc1OC [Tiapride hydrochloride]
[1]
  % conversion: 37.21%
[2]
  inhibition at 20 µM: -2.16%

## CN(C)c1cc(NC(=O)CNC(C)(C)C)c(O)c2c1C[C@H]1C[C@H]3[C@H](N(C)C)C(O)=C(C(N)=O)C(=O)[C@@]3(O)C(O)=C1C2=O [Tigecycline, tigecycline, reference compound]
50 nM His6-AspH315–758, 1.0 μM hFX-CP101–119, 3 μM 2OG, 2 μM Fe(II), 50 mM HEPES pH 7.5, 20 °C, mean ± SD, n = 2 (2,4-PDCA n = 10), read-out: IC50
  IC50: 7.6 ± 1.95 µM
[3]
  inhibition at 20 µM: 95.3%
[4]
  Plate 5 (% inhibition): 90.85%
[5]
  Plate 5 (% conversion): 5.39%

## CCCCS(=O)(=O)N[C@@H](Cc1ccc(OCCCCC2CCNCC2)cc1)C(=O)O [Tirofiban hydrochloride monohydrate]
[1]
  % conversion: 29.35%

## Clc1ccc2nsnc2c1NC1=NCCN1 [Tizanidine hydrochloride]
[1]
  % conversion: 37.51%

## Cc1ccc(S(=O)(=O)NC(=O)NN2CCCCCC2)cc1 [Tolazamide]
[1]
  % conversion: 36.66%

## CCCCNC(=O)NS(=O)(=O)c1ccc(C)cc1 [Tolbutamide]
[1]
  % conversion: 37.22%
[2]
  inhibition at 20 µM: -2.2%

## Cc1ccc(O)c([C@H](CCN(C(C)C)C(C)C)c2ccccc2)c1 [Tolterodine]
  Plate 5 (% conversion): 15.18%
  Plate 5 (% inhibition): 62.09%

## CNCC[C@@H](Oc1ccccc1C)c1ccccc1 [Tomoxetine]
[1]
  % conversion: 38.97%
[2]
  inhibition at 20 µM: -7.33%

## CC[C@@]1(O)C(=O)OCc2c1cc1n(c2=O)Cc2cc3c(CN(C)C)c(O)ccc3nc2-1.Cl.O [Topotecan hydrochloride hydrate]
[6]
  Plate 3 (% conversion): 37.14%

## CCOC(=O)N1c2ccc(C(F)(F)F)cc2[C@@H](N(Cc2cc(C(F)(F)F)cc(C(F)(F)F)c2)C(=O)OC)C[C@H]1CC [Torcetrapib]
[4]
  Plate 5 (% inhibition): 13.93%
[5]
  Plate 5 (% conversion): 31.57%

## CCOC(=O)[C@H](CCc1ccccc1)N[C@@H](C)C(=O)N1[C@H](C(=O)O)C[C@H]2CCCC[C@@H]21 [Trandolapril]
[6]
  Plate 3 (% conversion): 36.50%

## COc1ccc(/C=C/C(=O)Nc2ccccc2C(=O)O)cc1OC [Tranilast]
[1]
  % conversion: 35.26%

## N[C@@H]1C[C@H]1c1ccccc1 [Tranylcypromine hydrochloride]
  % conversion: 34.80%

## O=c1n(CCCN2CCN(c3cccc(Cl)c3)CC2)nc2ccccn12 [Trazodone hydrochloride]
[1]
  % conversion: 39.67%
[2]
  inhibition at 20 µM: -9.38%

## COc1cc2c(cc1OC)-c1c/c(=N\c3c(C)cc(C)cc3C)n(C)c(=O)n1CC2 [Trequinsin hydrochloride]
[1]
  % conversion: 28.50%

## C[C@]12C=CC(=O)C=C1CC[C@H]1[C@@H]3C[C@@H](O)[C@](O)(C(=O)CO)[C@@]3(C)C[C@H](O)[C@@]12F [Triamcinolone]
[1]
  % conversion: 30.89%

## Nc1nc(N)c2nc(-c3ccccc3)c(N)nc2n1 [Triamterene]
[1]
  % conversion: 36.11%

## CN1CCN(CCCN2c3ccccc3Sc3ccc(C(F)(F)F)cc32)CC1 [Trifluoperazine dihydrochloride]
  inhibition at 20 µM: -68.5%

## O=C(CCCN1CCC(O)(c2cccc(C(F)(F)F)c2)CC1)c1ccc(F)cc1 [Trifluperidol hydrochloride]
[1]
  % conversion: 30.59%

## CN(C)CCCN1c2ccccc2Sc2ccc(C(F)(F)F)cc21 [Triflupromazine hydrochloride]
  inhibition at 20 µM: -23.1%

## CC(=O)Oc1cc(C(F)(F)F)ccc1C(=O)O [Triflusal]
[1]
  % conversion: 27.02%

## OC(CCN1CCCCC1)(c1ccccc1)C1CCCCC1 (stereo not shown) [Trihexyphenidyl hydrochloride]
[1]
  % conversion: 39.76%
[2]
  inhibition at 20 µM: -9.65%

## COc1cc(Cc2cnc(N)nc2N)cc(OC)c1OC [Trimethoprim]
[1]
  % conversion: 37.33%

## CC(CN(C)C)CN1c2ccccc2CCc2ccccc21 (stereo not shown) [Trimipramine maleate]
[1]
  % conversion: 41.64%
[2]
  inhibition at 20 µM: -15.1%

## Cc1ccc(/C(=C\CN2CCCC2)c2ccccn2)cc1.Cl [Triprolidine hydrochloride]
[7]
  % inhibition: -7.68%
[1]
  % conversion: 39.09%

## N[C@@H]1[C@H]2CN(c3nc4c(cc3F)c(=O)c(C(=O)O)cn4-c3ccc(F)cc3F)C[C@@H]12 [Trovafloxacin mesylate]
LOPAC compound at fixed 20 uM, plate 1, normalised to DMSO and 2,4-PDCA controls
  Plate 1 (% inhibition): -24.51%
LOPAC compound at fixed 20 uM, substrate conversion, plate 1
  Plate 1 (% conversion): 44.10%

## N[C@@H]1[C@H]2CN(c3nc4c(cc3F)c(=O)c(C(=O)O)cn4-c3ccc(F)cc3F)C[C@@H]12 [Trovafloxacin]
[4]
  Plate 5 (% inhibition): -0.64%
[5]
  Plate 5 (% conversion): 36.53%

## NCCc1c[nH]c2ccccc12 [Tryptamine hydrochloride]
  Plate 1 (% conversion): 34.54%
  Plate 1 (% inhibition): 3.95%

## CC(C)(C)NCC(O)c1ccccc1Cl (stereo not shown) [Tulobuterol hydrochloride]
[1]
  % conversion: 41.18%
[2]
  inhibition at 20 µM: -13.8%

## N#CC(C#N)=Cc1ccc(O)c(O)c1 [Tyrphostin 23, reference compound]
[3]
  inhibition at 20 µM: 98.7%
[1]
  % conversion: 2.79%
[2]
  inhibition at 20 µM: 98.7%

## N#C/C(=C\c1ccc(O)c(O)c1)C(N)=S [Tyrphostin 47, reference compound]
  % conversion: 2.14%
  inhibition at 20 µM: 101%
read-out: Inhibition at 20 µM [%]
  inhibition at 20 µM: 101%

## N#CC(C#N)=C(N)/C(C#N)=C/c1cc(O)c(O)c(O)c1 [Tyrphostin 51, reference compound]
[3]
  inhibition at 20 µM: 101%
[1]
  % conversion: 2.15%
[2]
  inhibition at 20 µM: 101%

## N#CC(C#N)=C(N)/C(C#N)=C/c1ccc(O)cc1 [Tyrphostin AG 112]
[7]
  % inhibition: -1.91%
[1]
  % conversion: 37.12%

## N#C/C(=C\c1ccc(O)c(O)c1)C(=O)c1ccc(O)c(O)c1 [Tyrphostin AG 538]
[1]
  % conversion: 29.27%

## CC(C)(C)c1cc(/C=C(\C#N)C(N)=S)cc(C(C)(C)C)c1O [Tyrphostin AG 879]
[1]
  % conversion: 26.24%

## COc1cc2ncnc(Nc3cccc(Cl)c3)c2cc1OC [Tyrphostin AG 1478]
[1]
  % conversion: 38.87%
[2]
  inhibition at 20 µM: -7.04%

## N#CC(=C(/N)Sc1ccccc1N)/C(C#N)=C(/N)Sc1ccccc1N [U0126]
[7]
  % inhibition: -0.28%
[1]
  % conversion: 36.57%

## COc1ccc2c(c1)CC[C@@H]1[C@@H]2CC[C@]2(C)[C@@H](NCCCCCCN3C(=O)CCC3=O)CC[C@@H]12 [U-73343]
  Plate 3 (% conversion): 43.26%

## C[C@]12C=CC(=O)C=C1CC[C@@H]1C2=CC[C@]2(C)[C@@H](C(=O)CN3CCN(c4cc(N5CCCC5)nc(N5CCCC5)n4)CC3)CC[C@@H]12.O=C(O)/C=C\C(=O)O [U-74389G maleate]
  % conversion: 25.11%
[7]
  % inhibition: 33.28%

## CCCN(CCC)C1Cc2cc(OC)c(OC)cc2C1.O=C(O)/C=C\C(=O)O [U-99194A maleate]
[7]
  % inhibition: 4.59%
[1]
  % conversion: 34.90%

## CC(C)Oc1cccnc1N(C)C1CCN(Cc2ccccc2)CC1.O=C(O)/C=C\C(=O)O [U-101958 maleate]
[1]
  % conversion: 35.76%

## Brc1c(NC2=NCCN2)ccc2nccnc12 [UK 14,304]
  % conversion: 39.75%
20 µM
  % inhibition: -9.62%

## N#C/C(=C\c1cn(-c2ccccc2)c2ccccc12)C(=O)O [UK-5099]
[4]
  Plate 5 (% inhibition): 37.56%
[5]
  Plate 5 (% conversion): 23.53%

## Cc1cc(CCC[C@H](CC(=O)NO)C(=O)N[C@H](C(=O)N[C@H](C)c2ccccc2)C(C)(C)C)ccc1-c1ccccc1 [UK-356618]
[4]
  Plate 5 (% inhibition): 84.86%
[5]
  Plate 5 (% conversion): 7.43%

## NC(=O)c1noc([C@H](CCCC2CCCCC2)CC(=O)NO)n1 [UK-383367]
[4]
  Plate 5 (% inhibition): 50.83%
[5]
  Plate 5 (% conversion): 19.02%

## COc1ccccc1N1CCN(CCCNc2cc(=O)n(C)c(=O)n2C)CC1 [Urapidil hydrochloride]
[1]
  % conversion: 27.32%

## COc1ccccc1N1CCN(CCCNc2c(C)c(=O)n(C)c(=O)n2C)CC1 [Urapidil, 5-Methyl-]
  % conversion: 36.82%

## O=c1ccn([C@@H]2O[C@H](COP(=O)([O-])OP(=O)([O-])O)[C@@H](O)[C@H]2O)c(=O)[nH]1.[Na+].[Na+] [Uridine 5-diphosphate sodium]
[7]
  % inhibition: -0.23%
[1]
  % conversion: 36.55%

## C[C@H](N)CN1CCc2ccc(Br)cc21.C[C@H](N)CN1CCc2ccc(Br)cc21.O=C(O)/C=C/C(=O)O [VER-3323 hemifumarate salt]
  Plate 3 (% conversion): 21.58%

## Cc1onc(-c2ccccc2)c1-c1ccc(S(N)(=O)=O)cc1 [Valdecoxib]
[4]
  Plate 5 (% inhibition): 27.98%
[5]
  Plate 5 (% conversion): 26.79%

## CC(C)C(N)C(=O)OCC(CO)OCn1cnc2c(=O)[nH]c(N)nc21.Cl.O (stereo not shown) [Valganciclovir hydrochloride hydrate]
[8]
  Plate 2 (% conversion): 38.77%
LOPAC compound at 20uM
  Plate 2 (% inhibition): -8.41%

## CCCC(CCC)C(=O)O [Valproic acid sodium]
[6]
  Plate 3 (% conversion): 37.52%

## CCN(CC)C(=O)c1ccc(O)c(OC)c1 [Vanillic acid diethylamide]
[8]
  Plate 2 (% conversion): 35.22%
LOPAC compound at 20uM
  Plate 2 (% inhibition): 2.19%
